What was measured:
[1] = DPPH radical scavenging assay; details: 30 min incubation, 25 °C
Experimental: DPPH (2,2-diphenyl-1-picrylhydrazyl) radical scavenging assay was used to assess free-radical scavenging activity of synthesized compounds. Initially, 1 × 10^−4 M working solution of DPPH was prepared, and 350 µL was added to 350 µL of the solution of each compound. The final concentrations of the compounds (Q, 2a, and 2b) in the samples were 1 × 10^−3 M, 1 × 10^−4 M, and 1 × 10^−5 M. The control included ethanol only and DPPH–ethanol solution without compounds. The mixtures were incubated at 25 °C in the dark for 30 min. After incubation, the absorbance of the samples at 517 nm was measured in duplicate by using a UV/Vis spectrophotometer (Lambda 35, Perkin Elmer, Waltham, MA, USA). The DPPH radical scavenging ability was calculated using the following equation:(1) Antioxidative activity(%)=Acontrol−Asample/Acontrol×100% where Asample and Acontrol represent the absorbance at 517 nm of the sample and control, respectively. All samples were analysed in duplicate.

[2] = Metal-chelating assay, binding stoichiometry (molar ratio method), Zn2+; assay type: physicochemical; details: ethanol, 30 min, compound 5 × 10^−5 M, one ion coordinates with two molecules
Experimental: Binding stoichiometry was determined using the molar ratio method, with increasing concentrations of metal ions (from 0 to 1.5 × 10^−4 M) (Figures S1 and S2). Absorption spectra were collected 30 min after mixing. The change in absorption at the wavelength of maximum absorbance for the formed complex was plotted against the metal ion (M^2+ = Cu^2+, Zn^2+, and Fe^2+) to compound ratio (cM^2+/ccompound) and is presented in Figure 3. This graph allows the determination of the binding ratio between the newly synthesized compounds and metal ions. […] In contrast, the results for Fe^2+ indicate that only one Fe^2+ ion can bind to both compounds.
The metal-chelating ability of synthesized compounds in ethanol was assessed using UV/Vis spectrophotometer (Lambda 35, Perkin Elmer) recording spectra over a wavelength range of 230–600 nm in a 1 cm quartz cell. The mixture of compound at 5 × 10^−5 M of final concentration and metal ions at 1 × 10^−4 M of final concentration was incubated for 30 min at room temperature. The tested temperature was 25 °C. […]
The binding stoichiometry was assessed by adding increasing concentrations of metal ions (0–1.5 × 10^−4 M) to a fixed concentration of compound (5 × 10^−5 M) and incubating the mixture for 30 min at room temperature. The spectra were then measured as described above, and the ligand-to-metal chelation ratio in the complex was calculated.

[3] = biological target: eeAChE (Electrophorus electricus, UniProt O42275); experiment: biochemical; details: at 1 × 10^−4 M, 37 °C; for inhibition at 100 µM: read-out: Percentage Inhibition AChE
eeAChE, sequence (O42275 24-633): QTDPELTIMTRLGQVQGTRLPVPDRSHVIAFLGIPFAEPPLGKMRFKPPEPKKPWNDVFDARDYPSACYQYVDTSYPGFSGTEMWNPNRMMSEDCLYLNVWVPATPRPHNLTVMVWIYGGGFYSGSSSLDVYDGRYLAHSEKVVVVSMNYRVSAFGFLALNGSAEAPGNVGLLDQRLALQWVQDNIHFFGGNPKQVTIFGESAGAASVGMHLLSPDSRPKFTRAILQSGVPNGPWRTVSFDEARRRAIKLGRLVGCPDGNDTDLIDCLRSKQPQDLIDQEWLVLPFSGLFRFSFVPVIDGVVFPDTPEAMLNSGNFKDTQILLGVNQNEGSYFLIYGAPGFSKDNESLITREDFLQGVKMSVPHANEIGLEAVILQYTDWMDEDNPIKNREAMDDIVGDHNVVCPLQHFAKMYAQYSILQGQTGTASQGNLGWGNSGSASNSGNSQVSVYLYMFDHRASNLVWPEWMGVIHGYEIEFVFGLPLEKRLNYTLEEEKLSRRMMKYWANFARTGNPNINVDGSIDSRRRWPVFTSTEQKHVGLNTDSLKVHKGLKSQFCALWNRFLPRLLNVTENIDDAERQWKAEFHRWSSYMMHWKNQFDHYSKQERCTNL
Experimental: The abilities of compounds to inhibit AChE and BuChE activity were determined following Ellman’s procedure, with AChI and BuChI as the enzyme substrate, respectively, and DTNB as a chromogenic reagent. AChE’s and BuChE’s working solutions were prepared at 20 mM TRIS and deionized water, respectively. AChI and BuChI solutions were prepared in deionized water. […] Stock solutions (10 mM) of investigated compounds were prepared daily by dissolving solid compounds in DMSO. The reaction mixture containing phosphate buffer, DTNB, enzyme, and compound was preincubated 30 min at 37 °C. After the preincubation time, the enzyme reaction was initiated by adding appropriate substrate and left to incubate for 6 min. After incubation, 0.1 M SDS was added to stop the reaction. […] A blank assay, containing all components except the enzyme, was used to account for non-enzyme reactions. The control solution contained all components except the inhibitor. All experiments were conducted in triplicate, and the results are expressed as the mean percentage enzyme activity compared to the control value. IC50 values were determined graphically using Origin 9 Microsoft Windows.

[4] = biological target: eqBuChE (Equus caballus, UniProt P81908); experiment: BuChE inhibition (Ellman's procedure); assay type: biochemical; details: 37 °C; for IC50: read-out: IC50 BChE; for inhibition at 100 µM: at 1 × 10^−4 M, read-out: Percentage Inhibition BuChE
eqBuChE, sequence (P81908 whole entry): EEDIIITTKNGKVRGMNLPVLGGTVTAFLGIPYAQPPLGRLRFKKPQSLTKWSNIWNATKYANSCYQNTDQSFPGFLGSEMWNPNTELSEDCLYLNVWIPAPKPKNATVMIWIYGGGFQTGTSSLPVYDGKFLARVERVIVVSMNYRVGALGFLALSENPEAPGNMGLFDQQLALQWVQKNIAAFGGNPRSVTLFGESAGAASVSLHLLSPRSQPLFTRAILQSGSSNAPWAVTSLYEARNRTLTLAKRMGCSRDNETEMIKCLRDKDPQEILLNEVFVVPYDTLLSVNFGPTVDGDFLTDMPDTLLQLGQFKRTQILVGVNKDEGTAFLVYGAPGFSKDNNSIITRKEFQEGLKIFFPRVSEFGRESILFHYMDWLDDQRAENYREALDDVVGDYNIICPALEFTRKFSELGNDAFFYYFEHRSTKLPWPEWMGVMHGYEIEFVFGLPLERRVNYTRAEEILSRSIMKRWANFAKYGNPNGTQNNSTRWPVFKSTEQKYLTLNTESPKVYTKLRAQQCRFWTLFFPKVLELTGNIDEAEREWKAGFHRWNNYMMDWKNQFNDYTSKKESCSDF
Experimental: The abilities of compounds to inhibit AChE and BuChE activity were determined following Ellman’s procedure, with AChI and BuChI as the enzyme substrate, respectively, and DTNB as a chromogenic reagent. AChE’s and BuChE’s working solutions were prepared at 20 mM TRIS and deionized water, respectively. AChI and BuChI solutions were prepared in deionized water. A 0.01 M DTNB solution was prepared with 0.1 M phosphate buffer (pH 7) containing 0.15% (w/v) sodium bicarbonate. Stock solutions (10 mM) of investigated compounds were prepared daily by dissolving solid compounds in DMSO. The reaction mixture containing phosphate buffer, DTNB, enzyme, and compound was preincubated 30 min at 37 °C. After the preincubation time, the enzyme reaction was initiated by adding appropriate substrate and left to incubate for 6 min. After incubation, 0.1 M SDS was added to stop the reaction. Absorbance measurements were performed using a UV/Vis spectrophotometer (Lambda 35, Perkin Elmer), measuring absorbance at 412 nm. A blank assay, containing all components except the enzyme, was used to account for non-enzyme reactions. The control solution contained all components except the inhibitor. All experiments were conducted in triplicate, and the results are expressed as the mean percentage enzyme activity compared to the control value. IC50 values were determined graphically using Origin 9 Microsoft Windows.

[5] = tested on: MDA-MB-231 cells; experiment: SRB assay, MDA-MB-231 cells; assay type: cell-based; details: for IC50: Homo sapiens, MDA-MB-231, 72 h after treatment, SRB, read-out: IC50 MDA-231
Experimental: All cell lines were cultured in Dulbecco’s Modified Eagle’s Medium (DMEM) with 4500 mg/L glucose and L-glutamine (Capricorn Scientific, Ebsdorfergrund, Germany), supplemented with 10% foetal bovine serum (PAN-Biotech, Aidenbach, Germany), 10,000 U/mL penicillin, and 10 mg/mL streptomycin solution (Capricorn Scientific) under standard conditions at 37 °C in a humidified 5% CO2 atmosphere (ESCO, Lifesciences Group, Singapore).
Cells were seeded on a 96-well plate (Thermo Fisher Scientific, Waltham, MA, USA) at 2 × 10^3 cells per well in DMEM medium. For the analysis of the concentration- and time-dependent effect of the analysed compounds, cell monolayers were treated 24 h after seeding with concentrations 1 × 10^−6, 1 × 10^−5, and 1 × 10^−4 M for 24, 48, or 72 h. Cell viability was detected using sulforhodamine B (SRB) assay, based on the staining of cellular proteins. The assay was performed according to the procedure described by Skehan et al.. The cells were fixed with 10% trichloroacetic acid (TCA, CARLO ERBA Reagents GmbH, Emmendingen, Germany) for 1 h at 4 °C, washed with water, and stained for 15 min with 0.4% SRB (Sigma-Aldrich Chemie GmbH, Steinheim, Germany) in 1% acetic acid. The unbound SRB dye was rinsed with 1% acetic acid, while the protein-bound dye was extracted with a 10 mM Tris base (Sigma-Aldrich). […] The results were expressed as a percentage of the control, where the cell growth of the control is set to 100%. […] The selectivity index (SI) was determined according to the following formula:(2) SI=IC50 for fibroblast cell line/IC50 for tumour cell line
The assay was performed two times in 4 replicates for every experimental group. The statistical significance of differences between treated and untreated cells was estimated by the independent Student’s t-test, with the level of significance set at p < 0.05.

Structure (SMILES)	IC50 [1] [µM]	binding stoichiometry Zn^2+ [2]	inhibition at 100 µM [3] [%]	IC50 [4] [µM]	inhibition at 100 µM [4] [%]	Viability of MDA-231 cells ([5]; 72 h)	IC50 [5] [µM]	Percentage Inhibition AChE [3] [%]
O=c1c(O)c(-c2ccc(O)c(O)c2)oc2c(CN3CCc4ccccc4C3)c(O)cc(O)c12 [Compound 2a]	1.59	2	33.3	16.9	70	recovered to the control level or even increased	146 ± 7	–
COc1cc2c(cc1OC)CN(Cc1c(O)cc(O)c3c(=O)c(O)c(-c4ccc(O)c(O)c4)oc13)CC2 [Compound 2b]	10.2	2	15	41.1	67.6	–	106 ± 5	15.4

— publication PMC12068008 (International Journal of Molecular Sciences, 2024)
